# Data as given in patent US12325697B2 (Nimbus Clio, Inc., priority 2021, dated 2025).
# Target: Recombinant human Cbl-b (aa 36-427) (Homo sapiens (Human), UniProt Q13191)
# Assay: Cbl-b Biochemical Assay (TR-FRET)
# Details: read-out: TR-FRET hCbl-b IC50
# Method: Recombinant human Cbl-b (aa 36-427) was expressed in E. coli, purified and biotinylated in vitro. The protein was diluted to 12 nM in freshly prepared assay buffer consisting of 50 mM HEPES, pH 7.0, 100 mM NaCl, 5 mM MgCl2, 0.01% Triton-X 100, 0.01% BSA and 1 mM DTT. Recombinant human Src (aa 254-536)-[…]-Zap-70 (aa 281-297) fusion protein was expressed in E. coli and purified. Protein was diluted in assay buffer to 2-5 nM and supplemented with ATP to 1 mM. Fluorescein-BODIPY labeled UBE[…]([…])-Ub was prepared by conjugating ubiquitin (Ub) labeled at its N-terminus with Fluorescein-BODIPY maleimide (ThermoFisher Catalog no B10250) to E. coli expressed and purified UBE[…]([…]) [see Dou et al Nature Structural and Molecular Biology 8: 982-987, 2013]. Recombinant human UBE2D2([…]) was expressed in E. coli, purified and ubiquitinated and Bodipy labelled in vitro. Protein was diluted to 200 nM in assay buffer without MgCl2 (or Cisbio PPI buffer). Streptavidin-Terbium was added to 2 nM and EDTA to 10 mM, to provide a binding assay mix. Compounds were dissolved in DMSO and diluted to prepare a ten-point dilution series. 100 nl of each compound concentration was dispensed in duplicate in a 384 well black assay plate using acoustic dispensing. Wells for maximum signal controls received 100 nl of DMSO only and wells for minimum signal controls received 100 nl of a reference inhibitor compound at a final assay concentration of […] to produce 100% inhibition. 5 μl of diluted Cbl-b enzyme was added to all wells of the assay plate and incubated at RT for 30-60 min. The enzyme assay was initiated by addition of 5 μl of Src-Zap/ATP mix to all wells, and the plate incubated at RT for 60 min. The enzyme reaction was terminated and the binding reaction was initiated by adding 10 μl of binding assay mix to all wells and incubating the plate at RT for 60 min prior to assay read. Final assay conditions consisted of 6 nM Cbl-b, 1-2.5 nM Src-Zap70, 0.5 mM ATP, 1% (v/v) DMSO (enzyme reaction) and 100 nM UBE2D2([…])-Ub-FL-BODIPY, 5 mM EDTA, 1 nM Streptavidin-Tb (binding reaction). The HTRF assay signal was measured at 520 nm on an Envision plate reader, with reference signal at 485 or 620 nm. Data was normalized using maximum and minimum assay controls: % Inhibition=100-(100*((maximum control)-unknown)/(maximum control-minimum control)). A 4-parameter dose-response equation was used to fit the normalized dose-response data and derive an IC50 for test compounds.
# Chain of Recombinant human Cbl-b (aa 36-427) (Q13191 36-427): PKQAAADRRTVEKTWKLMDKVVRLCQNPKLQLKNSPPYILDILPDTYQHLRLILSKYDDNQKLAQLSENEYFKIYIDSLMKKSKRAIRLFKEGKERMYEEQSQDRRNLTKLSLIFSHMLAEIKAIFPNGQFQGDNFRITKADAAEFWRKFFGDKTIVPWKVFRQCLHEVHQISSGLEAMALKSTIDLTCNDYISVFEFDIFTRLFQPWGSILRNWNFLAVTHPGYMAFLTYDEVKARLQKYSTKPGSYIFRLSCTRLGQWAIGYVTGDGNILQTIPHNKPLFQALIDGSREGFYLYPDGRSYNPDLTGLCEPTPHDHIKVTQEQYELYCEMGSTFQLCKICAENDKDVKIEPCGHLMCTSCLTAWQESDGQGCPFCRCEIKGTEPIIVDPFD
row,Compound,IC50
1,"Cn1cnnc1-c1cc(C(N)=O)ccc1-c1cccc(N2Cc3c(cccc3C(F)(F)F)C2=O)c1 [ACD-1, 2-(4-Methyl-4H-1,2,4-triazol-3-yl)-3′-(1-oxo-4-(trifluoromethyl)isoindolin-2-yl)-[1,1′-biphenyl]-4-carboxamide]",1000 to 10000 nM
2,"CCNc1cc(-c2c(-c3nncn3C)cnn2C)cc(N2Cc3c(cc(CN4CCC[C@@H](C)C4)cc3C(F)(F)F)C2=O)n1 [ACE-1, (R)-2-(6-(Ethylamino)-4-(1-methyl-4-(4-methyl-4H-1,2,4-triazol-3-yl)-1H-pyrazol-5-yl)pyridin-2-yl)-6-((3-methylpiperidin-1-yl)methyl)-4-(trifluoromethyl) isoindolin-1-one]",≤ 200 nM
3,"CCNc1cc(-c2c(-c3nncn3C)cnn2C)cc(N2Cc3c(cc(CN4CCC[C@H](C)C4)cc3C(F)(F)F)C2=O)n1 [ACF-1, (S)-2-(6-(Ethylamino)-4-(1-methyl-4-(4-methyl-4H-1,2,4-triazol-3-yl)-1H-pyrazol-5-yl)pyridin-2-yl)-6-((3-methylpiperidin-1-yl)methyl)-4-(trifluoromethyl)isoindolin-1-one]",≤ 200 nM
4,"CCNc1cc(-c2c(-c3nncn3C)cnn2C)cc(N2Cc3c(cc(CN)cc3C(F)(F)F)C2=O)n1 [ACG-3, 6-(Aminomethyl)-2-(6-(ethylamino)-4-(1-methyl-4-(4-methyl-4H-1,2,4-triazol-3-yl)-1H-pyrazol-5-yl)pyridin-2-yl)-4-(trifluoromethyl)isoindolin-1-one]",≤ 200 nM
5,"CCNc1cc(-c2c(-c3nncn3C)cnn2C)cc(N2Cc3c(cc(CO)cc3C(F)(F)F)C2=O)n1 [ACH-1, 2-(6-(Ethylamino)-4-(1-methyl-4-(4-methyl-4H-1,2,4-triazol-3-yl)-1H-pyrazol-5-yl)pyridin-2-yl)-6-(hydroxymethyl)-4-(trifluoromethyl)isoindolin-1-one]",≤ 200 nM
6,"CCNc1cc(-c2c(-c3nncn3C)cnn2C)cc(N2Cc3c(cc(CNCCO)cc3C(F)(F)F)C2=O)n1 [ACI-1, 2-(6-(Ethylamino)-4-(1-methyl-4-(4-methyl-4H-1,2,4-triazol-3-yl)-1H-pyrazol-5-yl)pyridin-2-yl)-6-(((2-hydroxyethyl)amino)methyl)-4-(trifluoromethyl)isoindolin-1-one]",≤ 200 nM
7,"COC(=O)C1(c2cc(-c3ccccc3-c3nncn3C)cc(N3Cc4c(cccc4C(F)(F)F)C3=O)n2)CC1 [ACJ-6, Methyl 1-(4-(2-(4-methyl-4H-1,2,4-triazol-3-yl)phenyl)-6-(1-oxo-4-(trifluoromethyl)isoindolin-2-yl)pyridin-2-yl) cyclopropane-1-carboxylate]",10000 to 50000 nM
8,"Cn1cnnc1-c1ccccc1-c1cc(C2CC2)nc(N2Cc3c(cc(CO)cc3C(F)(F)F)C2=O)c1 [ACK-3, 2-(6-Cyclopropyl-4-(2-(4-methyl-4H-1,2,4-triazol-3-yl)phenyl)pyridin-2-yl)-6-(hydroxymethyl)-4-(trifluoromethyl)isoindolin-1-one]",≤ 200 nM
9,"Cn1cnnc1-c1ccccc1-c1cc(C2CC2)nc(N2Cc3c(cc(CN4CCC5(CC5)C4)cc3C(F)(F)F)C2=O)c1 [ACL-1, 6-((5-Azaspiro [2.4]heptan-5-yl)methyl)-2-(6-cyclopropyl-4-(2-(4-methyl-4H-1,2,4-triazol-3-yl)phenyl)pyridin-2-yl)-4-(trifluoromethyl)isoindolin-1-one]",≤ 200 nM
10,"CCNc1cc(-c2ccc(F)cc2-c2nncn2C)cc(N2Cc3c(cccc3C(F)(F)F)C2=O)n1 [ACM-8, 2-(6-(Ethylamino)-4-(4-fluoro-2-(4-methyl-4H-1,2,4-triazol-3-yl)phenyl)pyridin-2-yl)-4-(trifluoromethyl)isoindolin-1-one]",≤ 200 nM
11,"CCNc1cc(-c2c(-c3nncn3C)cnn2C)cc(N2Cc3c(cc(OCCN4CCCC4)cc3C(F)(F)F)C2=O)n1 [ACN-5, 2-(6-(Ethylamino)-4-(1-methyl-4-(4-methyl-4H-1,2,4-triazol-3-yl)-1H-pyrazol-5-yl)pyridin-2-yl)-6-(2-(pyrrolidin-1-yl)ethoxy)-4-(trifluoromethyl)isoindolin-1-one]",≤ 200 nM
12,"CCNc1cc(-c2c(-c3nncn3C)cnn2C)cc(N2Cc3c(cccc3C(F)(F)F)C2=O)n1 [ACO-1, 2-(6-(Ethylamino)-4-(1-methyl-4-(4-methyl-4H-1,2,4-triazol-3-yl)-1H-pyrazol-5-yl)pyridin-2-yl)-4-(trifluoromethyl)isoindolin-1-one]",≤ 200 nM
13,"CCNc1cc(-c2c(-c3nncn3C)cnn2C)cc(N2Cc3c(cc(O)cc3C(F)(F)F)C2=O)n1 [ACQ-7, 2-(6-(Ethylamino)-4-(1-methyl-4-(4-methyl-4H-1,2,4-triazol-3-yl)-1H-pyrazol-5-yl)pyridin-2-yl)-6-hydroxy-4-(trifluoromethyl)isoindolin-1-one]",≤ 200 nM
14,"CCNc1cc(-c2ccc(Cl)cc2-c2nncn2C)cc(N2Cc3c(cccc3C(F)(F)F)C2=O)n1 [ACR-7, 2-(4-(4-Chloro-2-(4-methyl-4H-1,2,4-triazol-3-yl)phenyl)-6-(ethylamino)pyridin-2-yl)-4-(trifluoromethyl)isoindolin-1-one]",≤ 200 nM
15,"CCNc1cc(-c2c(-c3nncn3C)cnn2C)cc(N2Cc3c(cc(C(=O)N4CC[C@H](O)C4)cc3C(F)(F)F)C2=O)n1 [ACS-4, (S)-2-(6-(Ethylamino)-4-(1-methyl-4-(4-methyl-4H-1,2,4-triazol-3-yl)-1H-pyrazol-5-yl)pyridin-2-yl)-6-(3-hydroxypyrrolidine-1-carbonyl)-4-(trifluoromethyl)isoindolin-1-one]",≤ 200 nM
16,"CCNc1cc(-c2c(-c3nncn3C)cnn2C)cc(N2Cc3c(cc(C(=O)N4CC[C@@H](O)C4)cc3C(F)(F)F)C2=O)n1 [ACT-2, (R)-2-(6-(Ethylamino)-4-(1-methyl-4-(4-methyl-4H-1,2,4-triazol-3-yl)-1H-pyrazol-5-yl)pyridin-2-yl)-6-(3-hydroxypyrrolidine-1-carbonyl)-4-(trifluoromethyl)isoindolin-1-one]",≤ 200 nM
17,"Cn1cnnc1-c1ccccc1-c1cc(N2Cc3c(cccc3C(F)(F)F)C2=O)nc(C2(CO)CC2)c1 [ACU-2, 2-(6-(1-(Hydroxymethyl)cyclopropyl)-4-(2-(4-methyl-4H-1,2,4-triazol-3-yl)phenyl)pyridin-2-yl)-4-(trifluoromethyl)isoindolin-1-one]",≤ 200 nM
18,"CCNc1cc(-c2c(-c3nncn3C)cnn2C)cc(N2Cc3c(cc(OC4CN(C)C4)cc3C(F)(F)F)C2=O)n1 [ACV-2, 2-(6-(Ethylamino)-4-(1-methyl-4-(4-methyl-4H-1,2,4-triazol-3-yl)-1H-pyrazol-5-yl)pyridin-2-yl)-6-((1-methylazetidin-3-yl)oxy)-4-(trifluoromethyl)isoindolin-1-one]",≤ 200 nM
19,"CCNc1cc(-c2c(-c3nncn3C)cnn2C)cc(N2Cc3c(cc(COC(C)C)cc3C(F)(F)F)C2=O)n1 [ACW-1, 2-(6-(Ethylamino)-4-(1-methyl-4-(4-methyl-4H-1,2,4-triazol-3-yl)-1H-pyrazol-5-yl)pyridin-2-yl)-6-(isopropoxymethyl)-4-(trifluoromethyl)isoindolin-1-one]",≤ 200 nM
20,"CCNc1cc(-c2ccccc2-c2nncn2C)cc(N2Cc3c(cc(CO)cc3C(F)(F)F)C2=O)n1 [AD-3, 2-(6-(Ethylamino)-4-(2-(4-methyl-4H-1,2,4-triazol-3-yl)phenyl)pyridin-2-yl)-6-(hydroxymethyl)-4-(trifluoromethyl)isoindolin-1-one]",≤ 200 nM
